According to patent US20030044399A1, “Method of treatment” (SmithKline Beecham Corporation, priority 1998, published 2003):
Where two headings read alike, the source gives them in different places.

Key:
[1] = target: Cruzain (Trypanosoma cruzi, UniProt P25779); test: Cysteine protease inhibition, progress curve method, cruzain; assay type: biochemical; conditions: 4 uM Ac-Lys-Glu-Lys-Leu-Arg-AMC, 100 mM Na acetate pH 5.5, 5 mM cysteine
In short: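 Buffer was 100 mM sodium acetate pH 5.5 with 5 mM cysteine and 2% DMSO, at ambient temperature; reactions started with enzyme, and AMC formation was followed for 20–30 min. Substrates: Leishmania and Schistosoma, 10 uM Cbz-Phe-Arg-AMC; falcipain, 10 uM Cbz-Leu-Arg-AMC; cruzain, 4 uM Ac-Lys-Glu-Lys-Leu-Arg-AMC. Linear curves gave Ki,app; curved ones gave kobs/[I].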

[2] = target: Rhodazain (Trypanosoma brucei rhodesiense, UniProt Q95PM0); test: Cysteine protease inhibition, progress curve method, rhodazain; assay type: biochemical, Trypanosoma brucei rhodesiensi; conditions: 10 uM Cbz-Leu-Arg-AMC, 100 mM Na acetate pH 5.5, 5 mM cysteine
Rhodazain, sequence (Q95PM0 entry or part of it): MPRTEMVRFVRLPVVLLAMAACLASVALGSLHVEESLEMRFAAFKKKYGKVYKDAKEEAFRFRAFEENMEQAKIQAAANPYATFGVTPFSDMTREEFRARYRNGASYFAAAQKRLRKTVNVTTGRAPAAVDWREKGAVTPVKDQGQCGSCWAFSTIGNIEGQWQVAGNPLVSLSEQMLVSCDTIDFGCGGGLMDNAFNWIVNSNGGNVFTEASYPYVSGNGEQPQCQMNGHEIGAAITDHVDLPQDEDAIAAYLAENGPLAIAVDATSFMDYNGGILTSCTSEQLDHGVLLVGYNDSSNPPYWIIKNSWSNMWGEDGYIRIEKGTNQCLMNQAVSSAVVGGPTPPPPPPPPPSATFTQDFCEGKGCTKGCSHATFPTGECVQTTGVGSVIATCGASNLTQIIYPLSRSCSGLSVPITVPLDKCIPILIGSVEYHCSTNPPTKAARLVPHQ

Cruzain, sequence (P25779 123-337): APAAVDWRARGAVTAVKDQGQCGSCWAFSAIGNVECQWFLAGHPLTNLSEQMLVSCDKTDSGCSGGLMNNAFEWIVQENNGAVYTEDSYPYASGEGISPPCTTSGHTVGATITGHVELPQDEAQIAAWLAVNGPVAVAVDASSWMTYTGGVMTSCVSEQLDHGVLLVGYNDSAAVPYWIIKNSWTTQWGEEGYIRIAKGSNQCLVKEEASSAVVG

Ki ([1]; Cruzain Ki nM) [nM] | Compound | Ki ([1]; read-out: Cruzain Ki) [nM] | Ki ([2]; Rhodazain Ki (nM)) [nM] | Ki ([2]; read-out: Rhodazain Ki) [nM]
 | CC(C)CC(NC(=O)c1ccc(F)cc1)C(=O)N[C@@H]1CCCN(S(=O)(=O)c2cccc[n+]2[O-])CC1=O (stereo partly drawn) [Example 77, 4-Fluoro-{(S)-3-methyl-1-[3-oxo-1-(1-oxy-pyridine-2-sulfonyl)-azepan-4-carbamoyl]-butyl}-benzamide] | 15 | 7.9 | 
 | Cc1ccc(C(=O)NC(CC(C)C)C(=O)N[C@@H]2CCCN(S(=O)(=O)c3cccc[n+]3[O-])CC2=O)s1 (stereo partly drawn) [Example 79, 5-Methyl-thiophene-2-carboxylic acid {(S)-3-methyl-1-[3-oxo-1-(1-oxy-1pyridine-2-sulfonyl)-azepan-4-ylcarbamoyl]-butyl}amide] | 16 | 8 | 
 | COc1ccc2oc(C(=O)N[C@@H](CC(C)C)C(=O)N[C@H]3CCCN(S(=O)(=O)c4ccccc4F)CC3=O)cc2c1 [Example 92, 5-Methoxy-benzofuran-2-carboxylic acid-{(S)-1-[1-(2-fluoro-benzenesulfonyl)-3-oxo-azepan-4-ylcarbamoyl]-3-methyl-butyl}-amide] | 49 | 6.3 | 
 | Cc1c(C(=O)N[C@@H](CC(C)C)C(=O)N[C@H]2CCCN(S(=O)(=O)c3ccccc3F)CC2=O)oc2ccccc12 [Example 94, 3-methylbenzofuran-2-carboxylic acid-{(S)-1-[1-(2-fluoro-benzenesulfonyl)-3-oxo-azepan-4-ylcarbamoyl]-3-methyl-butyl}-amide] | 8.6 | 9.4 | 
 | Cc1oc(-c2ccccc2)nc1C(=O)N[C@@H](CC(C)C)C(=O)NC1CCCN(S(=O)(=O)c2ccccn2)CC1=O (stereo partly drawn) [Example 106, 5-Methyl-2-phenyl-oxazole-4-carboxylic acid {(S)-3-methyl-1-[3-oxo-1-(pyridine-2-sulfonyl)-azepan-4-ylcarbamoyl]-butyl}amide] | 16 | 5.8 | 
 | COc1ccc(C(=O)N[C@H](CC(C)C)C(=O)N[C@@H]2CCCN(S(=O)(=O)c3ccccc3C#N)CC2=O)cc1OC [Example 120] | 9.9 | 11 | 
 | COc1cccc2cc(C(=O)N[C@@H](CC(C)C)C(=O)N[C@H]3CCCN(S(=O)(=O)c4nccs4)CC3=O)oc12 [Example 125] | 4 | 4.1 | 
 | Cc1c(C(=O)N[C@@H](CC(C)C)C(=O)N[C@H]2CCCN(S(=O)(=O)c3nccs3)CC2=O)oc2ccccc12 [Example 126, 3-Methylbenzofuran-2-carboxylic acid {(S)-3-methyl-1-[3-oxo-1-(thiazole-2-sulfonyl)-azepan-4-ylcarbamoyl]-butyl}amide] | 4.3 | 3.8 | 
 | CC(C)C[C@H](NC(=O)c1cc2ccccc2n1C)C(=O)N[C@H]1CCCN(S(=O)(=O)c2nccs2)CC1=O [Example 128, 1-Methyl-1H-indole-2-carboxylic acid{(S)-3-methyl-1-[3-oxo-1-(thiazole-2-sulfonyl)-azepan-4-ylcarbamoyl]-butyl}amide] | 17 | 8.2 | 
 | CC(C)C[C@H](NC(=O)c1cc2ccccc2o1)C(=O)N[C@H]1CCCN(S(=O)(=O)c2nccs2)CC1=O [Example 130, Benzofuran-2-carboxylic acid {(S)-3-methyl-1-[3-oxo-1-(thiazole-2-sulfonyl)-azepan-4-ylcarbamoyl]-butyl}amide] | 2.5 | 2.6 | 
 | CC(C)C[C@H](NC(=O)c1cc2ccccc2o1)C(=O)N[C@H]1CCCN(S(=O)(=O)c2cccs2)CC1=O [Example 142, Benzofuran-2-carboxylic acid-{(S)-3-methyl-1-[3-oxo-1-(thiophene-2-sulfonyl)-azepan-4-ylcarbamoyl]-butyl}-amide] | 2.4 | 5.2 | 
 | Cc1c(C(=O)N[C@@H](CC(C)C)C(=O)N[C@@H]2CCCN(S(=O)(=O)c3cccs3)CC2=O)oc2ccccc12 [Example 145, 3-Methyl-benzofuran-2-carboxylic acid-{(S)-3-methyl-1-[3-oxo-1-(thiophene-2-sulfonyl)-azepan-4-ylcarbamoyl]-butyl}-amide] | 6.2 | 9.4 | 
 | CC(C)CC(NC(=O)c1cc2ccccc2n1C)C(=O)NC1CCCN(S(=O)(=O)c2cccs2)CC1=O [Example 148, 1-Methyl-1-H-indole-2-carboxylic acid-{(S)-3-methyl-1-[3-oxo-1-(thiophene-2-sulfonyl)-azepan-4-ylcarbamoyl]-butyl}-amide] | 8.2 | 23 | 
 | Cc1cccnc1S(=O)(=O)N1CCC[C@@H](NC(=O)[C@@H](CC(C)C)NC(=O)c2cc3sccc3s2)C(=O)C1 [Example 160, Thieno [3.2-b]thiophene-2-carboxylic acid {(S)-3-methyl-1-[1-(3-methyl-pyridine-2-sulfonyl)-3-oxo-azepan-4-ylcarbamoyl]-butyl}amide] | 7.4 | 6.7 | 
 | CC(C)C[C@H](NC(=O)c1cc2ccccc2o1)C(=O)NC1CCCN(S(=O)(=O)c2cccc(F)c2)CC1=O (stereo partly drawn) [Example 183, Benzofuran-2-carboxylic acid {(S)-1-[-(3-fluoro-benzensulfonyl)-3-oxo-azepan-4-ylcarbamoyl]-3-methyl-1-butyl}-amide] | 7.1 | 6.5 | 
2.1 | CC(C)C[C@H](NC(=O)c1cccc2ccccc12)C(=O)N[C@H]1CCCN(S(=O)(=O)c2ccccn2)CC1=O [Example 184, Naphthalene-1-carboxylic acid {(S)-3-methyl-1-[3-oxo-1-(pyridine-2-sulfonyl)-azepan-4-ylcarbamoyl]-butyl}-amide] |  | 1.8 | 
 | CC(C)C[C@@H](NC(=O)c1cc2cc(F)ccc2o1)C(=O)N[C@H]1CCCN(S(=O)(=O)c2cccc[n+]2[O-])CC1=O [Example 191, 5-Fluoro-benzofuran-2-carboxylic acid {(S)-3-methyl-1-[3-oxo-1-(1-ox-pyridine-2-sulfonyl)-azepan-4-ylcarbamoyl]-butyl}-amide] | 12 | 8.3 | 
 | Cc1ccc2oc(C(=O)N[C@@H](CC(C)C)C(=O)NC3CCCN(S(=O)(=O)c4cccc[n+]4[O-])CC3=O)c(C)c2c1 (stereo partly drawn) [Example 201, 3,5-Dimethyl-benzofuran-2-carboxylic acid {(S)-3-methyl-1-[3-oxo-1-(1-oxy-pyridine-2-sulfonyl)-azepan-4-ylcarbamoyl]-butyl}-amide] | 10 |  | 7.6
 | COc1ccc2oc(C(=O)N[C@@H](CC(C)C)C(=O)N[C@H]3CCN(S(=O)(=O)c4cccc[n+]4[O-])CCC3=O)c(C)c2c1 [Example 205, 5-Methoxy-3-methyl-benzofuran-2-carboxylic acid {(S)-3-methyl-1-[3-oxo-1-(1-oxy-pyridine-2-sulfonyl)-azepan-4-ylcarbamoyl]-butyl}-amide] | 5.2 | 3.2 | 
 | COc1cccc2oc(C(=O)N[C@@H](CC(C)C)C(=O)NC3CCCN(S(=O)(=O)c4cccc[n+]4[O-])CC3=O)c(C)c12 (stereo partly drawn) [Example 208, 4-Methoxy-3-methyl-benzofuran-2-carboxylic acid {(S)-3-methyl-1-[3-oxo-1-(1-oxy-pyridine-2-sulfonyl)-azepan-4-ylcarbamoyl]-butyl}-amide] | 10 |  | 4.2
 | COc1cccc2oc(C(=O)N[C@@H](CC(C)C)C(=O)NC3CCCN(S(=O)(=O)c4cccc[n+]4[O-])CC3=O)c(C)c12 (stereo partly drawn) [Example 209, 4-Methoxy-3-methyl-benzofuran-2-carboxylic acid {(S)-3-methyl-1-[3-oxo-1-(1-oxy-pyridine-2-sulfonyl)-azepan-4-ylcarbamoyl]-butyl}-amide] | 8.9 |  | 4.1
 | Cc1c(C(=O)N[C@@H](CC(C)C)C(=O)N[C@H]2CCCN(C(=O)Nc3ccccc3F)CC2=O)oc2ccccc12 [Example 216, 3-Methyl-benzofuran-2-carboxylic acid {(S)-1-[1-(2-fluoro-phenylcarbamoyl)-3-oxo-azepan-4-ylcarbamoyl]-3-methyl-butyl}-amide] | 6.9 | 3.4 | 
 | CC(C)C[C@H](NC(=O)c1cnc2ccccc2n1)C(=O)NC1CCCN(C(=O)Nc2ccccc2F)CC1=O (stereo partly drawn) [Example 217, Quinoxaline-2-carboxylic acid {(S)-1-[1-(2-fluoro-phenylcarbamol)-3-oxo-azepan-4-ylcarbamoyl]-3-methyl-butyl}-amide] | 11 | 6.7 | 
 | CC(C)C[C@H](NC(=O)c1ccc2ccccc2n1)C(=O)N[C@H]1CCCN(C(=O)Nc2ccccc2F)CC1=O [Example 219, Quinoline-2-carboxylic acid {(S)-1-[1-(2-fluoro-phenylcarbamoyl)-3-oxo-azepan-4-ylcarbamoyl]-3-methyl-butyl}-amide] | 8.4 | 5.5 | 
